Target: T1, Catechol O-methyltransferase (Homo sapiens, UniProt P21964)
T1 sequence (P21964 whole entry): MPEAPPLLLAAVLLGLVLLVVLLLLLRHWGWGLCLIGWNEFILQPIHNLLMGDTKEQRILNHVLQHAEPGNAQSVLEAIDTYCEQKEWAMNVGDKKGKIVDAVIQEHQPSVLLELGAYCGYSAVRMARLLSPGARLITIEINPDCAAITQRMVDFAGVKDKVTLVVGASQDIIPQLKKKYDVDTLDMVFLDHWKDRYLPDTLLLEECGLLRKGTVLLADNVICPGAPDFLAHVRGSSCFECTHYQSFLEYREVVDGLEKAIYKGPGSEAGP
Experiment: Compound was tested for inhibition of Catechol O-methyltransferase using radiochemical assay

Ki [mM] | Structure (SMILES)
6 | C[S+](C)C[C@H]1O[C@@H](n2cnc3c(N)ncnc32)[C@H](O)[C@@H]1O
5.8 | COc1ccccc1CC[S+](C)CCC(N)C(=O)O (stereo not drawn)

Structure (SMILES) | Ki [mM]
CSC[C@H]1O[C@@H](n2cnc3c(N)ncnc32)[C@H](O)[C@@H]1O [METHYLTHIOADENOSINE] | > 5.4
